Molecules are shown by their SMILES.

One experiment concerns HL-60. The experiment is described as follows: Cytotoxicity against human HL60 cells after 72 hrs by MTT assay. Type of experiment: functional, cell-based. Conditions: HL-60, 72 h. In general terms: Tetrazolium assays rely on reduction of a dye to a coloured formazan, in cell work by metabolically active cells.
Experiment [1] is described as follows: Cytotoxicity against human HL60/A cells after 72 hrs by MTT assay. The experiment is classed as functional, cell-based.
Experiment [2] in a line: Induction of apoptosis in human HL60/A cells assessed as viable cells at 50 uM after 24 hrs by annexin V/propidium iodide based flow cytometry (reference value: 95.2 %). Type of experiment: functional. Conditions: read-out: Activity.
Experiment [3] in a line: Induction of apoptosis in human HL60/A cells assessed as early apoptotic cells at 50 uM after 24 hrs by annexin V/propidium iodide based flow cytometry (reference value: 2.66 %). The experiment is classed as functional.
The nature of experiment [4]: Induction of apoptosis in human HL60/A cells assessed as late apoptotic cells at 50 uM after 24 hrs by annexin V/propidium iodide based flow cytometry (reference value: 1.82 %). Type of experiment: functional. (In general: Flow cytometry measures light scatter and fluorescence of single cells or particles in a stream.)
The nature of experiment [5]: Induction of apoptosis in human HL60/A cells assessed as necrotic cells at 50 uM after 24 hrs by annexin V/propidium iodide based flow cytometry (reference value: 0.282 %). Type of experiment: functional.
A short description of experiment [6]: Induction of apoptosis in human HL60/A cells assessed as viable cells at 20 uM after 24 hrs by annexin V/propidium iodide based flow cytometry (reference value: 95.2 %). Type of experiment: functional. Conditions: read-out: Activity.
Experiment [7] is described as follows: Induction of apoptosis in human HL60/A cells assessed as early apoptotic cells at 20 uM after 24 hrs by annexin V/propidium iodide based flow cytometry (reference value: 2.66 %). The experiment is classed as functional.
Experiment [8] in a line: Induction of apoptosis in human HL60/A cells assessed as late apoptotic cells at 20 uM after 24 hrs by annexin V/propidium iodide based flow cytometry (reference value: 1.82 %). The experiment is classed as functional.
Experiment [9] in a line: Induction of apoptosis in human HL60/A cells assessed as necrotic cells at 20 uM after 24 hrs by annexin V/propidium iodide based flow cytometry (reference value: 0.282 %). The experiment is classed as functional.
Experiment [10] can be described thus: Induction of apoptosis in human HL60/A cells assessed as viable cells at 10 uM after 24 hrs by annexin V/propidium iodide based flow cytometry (reference value: 95.2 %). Type of experiment: functional. Conditions: read-out: Activity.
Experiment [11] is described as follows: Induction of apoptosis in human HL60/A cells assessed as late apoptotic cells at 10 uM after 24 hrs by annexin V/propidium iodide based flow cytometry (reference value: 1.82 %). Type of experiment: functional.
Experiment [12] in a line: Induction of apoptosis in human HL60/A cells assessed as necrotic cells at 10 uM after 24 hrs by annexin V/propidium iodide based flow cytometry (reference value: 0.282 %). Type of experiment: functional.
Experiment [13] can be described thus: Induction of apoptosis in human HL60/A cells assessed as early apoptotic cells at 10 uM after 24 hrs by annexin V/propidium iodide based flow cytometry (reference value: 2.66 %). Type of experiment: functional.

Take `C=C1CC[C@H]2C(=C)CC[C@H]3/C(=C\c4ccc(F)cc4)C(=O)O[C@@H]3[C@@H]12`: the IC50 (in the experiment on HL-60; in experiment [1]) was above 50 µM in each case.
Regarding `CC[Si](CC)(CC)O[C@]1(C)CCC2=C(C)CC[C@H]3/C(=C/c4ccccc4F)C(=O)O[C@@H]3[C@H]21`, the half-maximal inhibitory concentration (IC50) in the experiment with HL-60 amounted to 32 µM; in [1] it was 7.8 µM.
As to `CC1=C2CC[C@@](C)(O)[C@@H]2[C@H]2OC(=O)/C(=C\c3ccc(Cl)cc3)[C@@H]2CC1`, the IC50 (in the experiment with HL-60; in experiment [1]) was above 50 µM each time.
`CC1=C2CC[C@@](C)(O)[C@@H]2[C@H]2OC(=O)/C(=C\c3ccc(F)cc3)[C@@H]2CC1`: the 50% inhibitory concentration (IC50) (with HL-60; in [1]) was above 50 µM in each case.
`CC1=C2CC[C@@](C)(O)[C@@H]2[C@H]2OC(=O)/C(=C\c3ccccc3F)[C@@H]2CC1`: the IC50 (with HL-60; in [1]) was above 50 µM throughout.
In the case of `CC1=C2CC[C@@](C)(O)[C@@H]2[C@H]2OC(=O)/C(=C\c3cccc(F)c3)[C@@H]2CC1`, the 50% inhibitory concentration (IC50) (in the experiment on HL-60; in experiment [1]) was above 50 µM in each case.
In the case of `CCc1ccc(/C=C2\C(=O)O[C@H]3[C@H]2CCC(C)=C2CC[C@@](C)(O)[C@@H]23)cc1`, the IC50 (with HL-60; in [1]) was above 50 µM each time.
For `C=C1CC[C@H]2C(=C)CC[C@H]3/C(=C\c4ccc(Cl)cc4)C(=O)O[C@@H]3[C@@H]12`, the concentration for half-maximal inhibition (IC50) (in the experiment with HL-60; in [1]) was above 50 µM each time.
With `C=C1CC[C@H]2C(=C)CC[C@H]3/C(=C\c4ccccc4F)C(=O)O[C@@H]3[C@@H]12`, the IC50 (in the experiment on HL-60; in experiment [1]) was above 50 µM in each case.
Take `C=C1CC[C@H]2C(=C)CC[C@H]3/C(=C\c4cccc(C(F)(F)F)c4)C(=O)O[C@@H]3[C@@H]12`: the IC50 in the experiment on HL-60 was 24 µM; in experiment [1], 17 µM.
With `C=C1CC[C@H]2C(=C)CC[C@H]3/C(=C\c4ccc(CC)cc4)C(=O)O[C@@H]3[C@@H]12`, the concentration for half-maximal inhibition (IC50) (in the experiment with HL-60; in experiment [1]) was above 50 µM each time.
For the compound `C=C1CC[C@H]2C(=C)CC[C@H]3/C(=C\c4cc(OC)c(OC)c(OC)c4)C(=O)O[C@@H]3[C@@H]12`, the IC50 (in the experiment with HL-60; in [1]) was above 50 µM throughout.
For the compound `C=C1CC[C@H]2C(=C)CC[C@H]3/C(=C\c4ccccc4)C(=O)O[C@@H]3[C@@H]12`, the concentration for half-maximal inhibition (IC50) (in the experiment with HL-60; in [1]) was above 50 µM in each case.
Consider `C=C1CC[C@H]2C(=C)CC[C@H]3/C(=C/c4ccc(Cl)cc4)C(=O)O[C@@H]3[C@@H]12`, for which the IC50 (with HL-60; in experiment [1]) was above 50 µM in each case.
`C=C1CC[C@H]2C(=C)CC[C@H]3/C(=C/c4ccc(F)cc4)C(=O)O[C@@H]3[C@@H]12`: the IC50 (with HL-60; in [1]) was above 50 µM in each case.
In the case of `C=C1CC[C@H]2C(=C)CC[C@H]3/C(=C/c4ccccc4F)C(=O)O[C@@H]3[C@@H]12`, the concentration for half-maximal inhibition (IC50) (with HL-60; in experiment [1]) was above 50 µM in each case.
Turning to `C=C1CC[C@H]2C(=C)CC[C@H]3/C(=C/c4cccc(C(F)(F)F)c4)C(=O)O[C@@H]3[C@@H]12`, the half-maximal inhibitory concentration (IC50) (in the experiment with HL-60; in experiment [1]) was above 50 µM each time.
Consider `C=C1CC[C@H]2C(=C)CC[C@H]3/C(=C/c4ccc(CC)cc4)C(=O)O[C@@H]3[C@@H]12`, for which the IC50 (in the experiment with HL-60; in [1]) was above 50 µM throughout.
For the compound `C=C1CC[C@H]2C(=C)CC[C@H]3/C(=C/c4cc(OC)c(OC)c(OC)c4)C(=O)O[C@@H]3[C@@H]12`, the IC50 (with HL-60; in experiment [1]) was above 50 µM each time.
Take `C=C1CC[C@H]2C(=C)CC[C@H]3/C(=C/c4ccccc4)C(=O)O[C@@H]3[C@@H]12`: the IC50 (in the experiment with HL-60; in experiment [1]) was above 50 µM in each case.
With `C=C1C(=O)O[C@H]2[C@H]1CCC(C)=C1CC[C@@](C)(O[Si](CC)(CC)CC)[C@@H]12`, the half-inhibitory concentration (IC50) amounted to 8.4 µM in the experiment on HL-60 and 7.2 µM in [1].
Consider `CC[Si](CC)(CC)O[C@]1(C)CCC2=C(C)CC[C@H]3/C(=C\c4ccc(Cl)cc4)C(=O)O[C@@H]3[C@H]21`, for which the half-maximal inhibitory concentration (IC50) (in the experiment with HL-60; in experiment [1]) was above 50 µM in each case.
Take `CC[Si](CC)(CC)O[C@]1(C)CCC2=C(C)CC[C@H]3/C(=C\c4ccc(F)cc4)C(=O)O[C@@H]3[C@H]21`: the half-inhibitory concentration (IC50) (in the experiment with HL-60; in experiment [1]) was above 50 µM throughout.
As to `CC[Si](CC)(CC)O[C@]1(C)CCC2=C(C)CC[C@H]3/C(=C\c4ccccc4F)C(=O)O[C@@H]3[C@H]21`, the IC50 (with HL-60; in [1]) was above 50 µM in each case.
As for `CC[Si](CC)(CC)O[C@]1(C)CCC2=C(C)CC[C@H]3/C(=C\c4cccc(F)c4)C(=O)O[C@@H]3[C@H]21`, the IC50 (in the experiment on HL-60; in experiment [1]) was above 50 µM throughout.
For the compound `CCc1ccc(/C=C2/C(=O)O[C@H]3[C@H]2CCC(C)=C2CC[C@@](C)(O[Si](CC)(CC)CC)[C@@H]23)cc1`, the concentration for half-maximal inhibition (IC50) in the experiment on HL-60 worked out at 45 µM; in experiment [1] it was 9.2 µM.
On the same counts, the results for `CC[Si](CC)(CC)O[C@]1(C)CCC2=C(C)CC[C@H]3/C(=C/c4ccc(Cl)cc4)C(=O)O[C@@H]3[C@H]21` are above 50 µM and above 50 µM.
Regarding `CC[Si](CC)(CC)O[C@]1(C)CCC2=C(C)CC[C@H]3/C(=C/c4ccc(F)cc4)C(=O)O[C@@H]3[C@H]21`, the IC50 (with HL-60; in experiment [1]) was above 50 µM throughout.
For the compound `CC[Si](CC)(CC)O[C@]1(C)CCC2=C(C)CC[C@H]3/C(=C/c4cccc(F)c4)C(=O)O[C@@H]3[C@H]21`, the results for the IC50 (in the experiment on HL-60; in experiment [1]) were 52 µM and 10 µM, respectively.
On the same counts, the results for `CCc1ccc(/C=C2\C(=O)O[C@H]3[C@H]2CCC(C)=C2CC[C@@](C)(O[Si](CC)(CC)CC)[C@@H]23)cc1` are above 50 µM and 19 µM.
As to `CC1=C2CC[C@@](C)(O)[C@@H]2[C@H]2OC(=O)/C(=C/c3ccc(Cl)cc3)[C@@H]2CC1`, the half-maximal inhibitory concentration (IC50) (in the experiment on HL-60; in experiment [1]) was above 50 µM throughout.
With `CC1=C2CC[C@@](C)(O)[C@@H]2[C@H]2OC(=O)/C(=C/c3ccc(F)cc3)[C@@H]2CC1`, the half-maximal inhibitory concentration (IC50) (in the experiment on HL-60; in experiment [1]) was above 50 µM throughout.
In the case of `CC1=C2CC[C@@](C)(O)[C@@H]2[C@H]2OC(=O)/C(=C/c3ccccc3F)[C@@H]2CC1`, the IC50 (in the experiment on HL-60; in experiment [1]) was above 50 µM throughout.
Consider `CC1=C2CC[C@@](C)(O)[C@@H]2[C@H]2OC(=O)/C(=C/c3cccc(F)c3)[C@@H]2CC1`, for which the results for the IC50 (in the experiment on HL-60; in [1]) were above 50 µM and 32 µM, respectively.
`CCc1ccc(/C=C2/C(=O)O[C@H]3[C@H]2CCC(C)=C2CC[C@@](C)(O)[C@@H]23)cc1`: the viability at 50 µM in experiment [2] was 0.94%. For the same compound, the Activity in experiment [3] was 1.5%; in [4], 85.9%; in [5], 11.7%; in experiment [7], 4.66%; in experiment [8], 23.8%; in experiment [9], 5.51%. Also, the results for the Activity in [11], in [12] and in [13] were 6.61%, 1.03% and 3.14%, respectively. For the same compound, the viability at 20 µM in [6] was 66%. For the same compound, the viability at 10 µM in experiment [10] came out at 89.2%. Besides, the half-inhibitory concentration (IC50) in the experiment on HL-60 turned out to be 31 µM; in experiment [1], 6.2 µM.
Take `COc1cccc2c1C(=O)c1c(O)c3c(c(O)c1C2=O)C[C@@](O)(C(=O)CO)C[C@@H]3O[C@H]1C[C@H](N)[C@H](O)[C@H](C)O1` [DOXORUBICIN]: the half-maximal inhibitory concentration (IC50) in the experiment on HL-60 amounted to 0.07 µM; in [1], 7.8 µM.

The IC50 is the concentration needed to halve the response being measured. A high value points to weaker potency in that assay.

The record behind these values is ChEMBL document CHEMBL2440002, “The application of Heck reaction in the synthesis of guaianolide sesquiterpene lactones derivatives selectively inhibiting resistant acute leukemic cells” (Bioorg Med Chem Lett, 2013).
